Source: patent publication US9181273B2, “Morpholine-spirocyclic piperidine amides as modulators of ion channels” (Vertex Pharmaceuticals Incorporated, priority 2011, dated 2015)

target: human NaV subtype, like NaV 1.7 (Homo sapiens, UniProt Q15858); experiment: E-VIPR optical membrane potential assay with electrical stimulation; type: cell-based; conditions: not given
Sequence (Q15858 whole entry): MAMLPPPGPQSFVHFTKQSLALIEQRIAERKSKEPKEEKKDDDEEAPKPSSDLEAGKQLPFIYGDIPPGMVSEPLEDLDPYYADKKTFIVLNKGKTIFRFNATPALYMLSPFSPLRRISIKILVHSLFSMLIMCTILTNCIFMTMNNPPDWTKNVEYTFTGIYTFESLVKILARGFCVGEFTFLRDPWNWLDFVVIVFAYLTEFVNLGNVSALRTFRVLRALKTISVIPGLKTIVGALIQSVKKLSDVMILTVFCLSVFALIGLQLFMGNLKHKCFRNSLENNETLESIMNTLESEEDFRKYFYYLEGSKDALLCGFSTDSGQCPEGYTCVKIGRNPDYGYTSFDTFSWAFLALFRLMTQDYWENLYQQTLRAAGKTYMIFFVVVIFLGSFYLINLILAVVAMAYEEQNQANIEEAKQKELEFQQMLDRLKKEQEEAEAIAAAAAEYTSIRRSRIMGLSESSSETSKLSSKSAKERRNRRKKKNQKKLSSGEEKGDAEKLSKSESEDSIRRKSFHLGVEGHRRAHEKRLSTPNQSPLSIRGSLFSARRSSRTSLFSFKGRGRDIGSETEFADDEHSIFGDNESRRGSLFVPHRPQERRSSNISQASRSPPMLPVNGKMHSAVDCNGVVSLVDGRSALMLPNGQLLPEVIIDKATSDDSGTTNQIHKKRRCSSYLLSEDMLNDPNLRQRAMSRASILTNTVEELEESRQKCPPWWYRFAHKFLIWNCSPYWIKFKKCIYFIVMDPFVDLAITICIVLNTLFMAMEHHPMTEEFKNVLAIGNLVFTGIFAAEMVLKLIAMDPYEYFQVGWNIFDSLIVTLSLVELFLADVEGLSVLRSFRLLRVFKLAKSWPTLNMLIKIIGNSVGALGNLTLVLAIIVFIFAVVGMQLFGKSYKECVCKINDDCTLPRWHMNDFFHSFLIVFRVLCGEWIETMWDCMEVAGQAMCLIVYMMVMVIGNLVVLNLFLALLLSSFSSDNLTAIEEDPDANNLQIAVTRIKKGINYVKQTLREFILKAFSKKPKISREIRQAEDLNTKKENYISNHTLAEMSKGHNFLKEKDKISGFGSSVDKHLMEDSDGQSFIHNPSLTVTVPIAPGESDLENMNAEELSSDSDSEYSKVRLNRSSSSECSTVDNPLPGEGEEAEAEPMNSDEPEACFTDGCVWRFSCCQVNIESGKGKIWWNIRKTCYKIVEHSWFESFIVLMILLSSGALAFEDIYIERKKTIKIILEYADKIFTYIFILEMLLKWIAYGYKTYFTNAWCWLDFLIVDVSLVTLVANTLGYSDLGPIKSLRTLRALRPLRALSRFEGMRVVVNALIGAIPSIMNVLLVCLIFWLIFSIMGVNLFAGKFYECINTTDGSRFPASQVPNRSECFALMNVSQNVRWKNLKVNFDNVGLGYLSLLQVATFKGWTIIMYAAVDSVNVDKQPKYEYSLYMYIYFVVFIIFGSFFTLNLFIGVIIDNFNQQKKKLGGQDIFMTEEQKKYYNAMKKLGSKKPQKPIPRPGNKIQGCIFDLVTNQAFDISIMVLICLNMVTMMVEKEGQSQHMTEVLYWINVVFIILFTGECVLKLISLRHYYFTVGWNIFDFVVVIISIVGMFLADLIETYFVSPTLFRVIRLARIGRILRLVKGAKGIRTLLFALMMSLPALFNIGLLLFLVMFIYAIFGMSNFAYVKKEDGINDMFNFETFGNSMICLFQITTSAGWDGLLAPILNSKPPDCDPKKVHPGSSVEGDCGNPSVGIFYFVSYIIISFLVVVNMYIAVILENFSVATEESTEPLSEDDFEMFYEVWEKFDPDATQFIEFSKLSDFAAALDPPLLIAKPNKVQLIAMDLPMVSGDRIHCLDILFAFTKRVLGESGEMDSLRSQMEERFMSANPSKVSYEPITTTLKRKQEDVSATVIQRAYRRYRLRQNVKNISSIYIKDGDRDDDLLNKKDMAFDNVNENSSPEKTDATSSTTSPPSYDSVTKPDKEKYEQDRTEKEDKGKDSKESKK

IC50 | SMILES
< 2000 nM | Cc1cc(C(=O)N2CCC3(CC2)CN(CC(F)(F)F)CC(c2cc[nH]n2)O3)ccc1OC(C)C (stereo not drawn) [Compound 211]

same assay, conditions: active against one or more sodium channels; assay and NaV subtype not specified for Table 3; read-out: IC50 Binned Activity Data

SMILES | IC50
CCCN1CC(COC)OC2(CCN(C(=O)c3ccc(OC(C)C)c(C)c3)CC2)C1 (stereo not drawn) [Compound 205] | < 2000 nM
COCC1CN(CC2CCCCC2)CC2(CCN(C(=O)c3ccc(OC(C)C)c(C)c3)CC2)O1 (stereo not drawn) [Compound 206] | < 2000 nM
COCC1CN(c2ncccn2)CC2(CCN(C(=O)c3ccc(S(=O)(=O)C4CC4)cc3)CC2)O1 (stereo not drawn) [Compound 208] | > 5000 nM
Cc1cc(C(=O)N2CCC3(CC2)CN(CC(F)F)CC(c2ncco2)O3)ccc1OC(C)C (stereo not drawn) [Compound 209] | < 2000 nM
COc1cc(C(=O)N2CCC3(CC2)CN(CC(F)F)CC(c2cc[nH]n2)O3)ccc1OC(C)C (stereo not drawn) [Compound 210] | > 5000 nM
Cc1nc(C(=O)N2CCC3(CC2)CN(CC#N)CC(c2ccccc2)O3)ccc1OC(C)C (stereo not drawn) [Compound 212] | < 2000 nM
CC(C)Oc1ccc(C(=O)N2CCC3(CC2)CN(CC(F)(F)F)CC(c2ccccc2)O3)cc1Cl (stereo not drawn) [Compound 213] | < 2000 nM
CCc1cnc(C2CN(CC(F)F)CC3(CCN(C(=O)c4ccc(OC(C)C)c(C)c4)CC3)O2)o1 (stereo not drawn) [Compound 214] | 2000 to 5000 nM
COCC1CN(CC(=O)OC)CC2(CCN(C(=O)c3ccc(OC(C)C)c(C)c3)CC2)O1 (stereo not drawn) [Compound 215] | 2000 to 5000 nM
COCC1CN(c2ncccn2)CC2(CCN(C(=O)c3ccc(OCC(C)(C)O)c(C)c3)CC2)O1 (stereo not drawn) [Compound 216] | 2000 to 5000 nM
CC#CCN1CC(CC)OC2(CCN(C(=O)c3ccc(OCCC)c(C)c3)CC2)C1 (stereo not drawn) [Compound 217] | < 2000 nM
CC#CCN1CC(COC)OC2(CCN(C(=O)c3ccc(OC(C)C)c(C)c3)CC2)C1 (stereo not drawn) [Compound 218] | < 2000 nM
COc1cc(C(=O)N2CCC3(CC2)CN(CC(F)F)CC(c2ccccc2)O3)ccc1OC(C)C (stereo not drawn) [Compound 219] | < 2000 nM
COCC1CN(C2CCC(F)(F)CC2)CC2(CCN(C(=O)c3ccc(OC(C)C)c(C)c3)CC2)O1 (stereo not drawn) [Compound 220] | < 2000 nM
CC(C)Oc1ccc(C(=O)N2CCC3(CC2)CN(CC(F)F)CC(c2ccccn2)O3)cc1F (stereo not drawn) [Compound 221] | < 2000 nM
CC(C)Oc1ccc(C(=O)N2CCC3(CC2)CN(CC(F)F)CC(c2ccccn2)O3)cc1Cl (stereo not drawn) [Compound 222] | < 2000 nM
COCC1CN(c2cccc(C(F)(F)F)c2)CC2(CCN(C(=O)c3ccc(C4(O)CCC4)cc3)CC2)O1 (stereo not drawn) [Compound 223] | < 2000 nM
COc1cc(C(=O)N2CCC3(CC2)CN(CC(F)F)CC(c2ccccc2)O3)ccc1C(C)(C)O (stereo not drawn) [Compound 224] | < 2000 nM
COCC1CN(c2cccc(C(F)(F)F)c2)CC2(CCN(C(=O)c3ccc(OCC(C)(C)O)c(C)c3)CC2)O1 (stereo not drawn) [Compound 225] | < 2000 nM
CC(C)Oc1ccc(C(=O)N2CCC3(CC2)CN(CC(F)F)CC(c2cc[nH]n2)O3)cc1F (stereo not drawn) [Compound 226] | 2000 to 5000 nM
CCN1CC(c2ccccc2)OC2(CCN(C(=O)c3ccc(OC(C)C)c(F)c3)CC2)C1 (stereo not drawn) [Compound 227] | < 2000 nM
COCC1CN(c2cccc(C#N)c2)CC2(CCN(C(=O)c3ccc(OC(C)C)c(C)c3)CC2)O1 (stereo not drawn) [Compound 228] | < 2000 nM
CCn1ccc(C2CN(CC(F)F)CC3(CCN(C(=O)c4ccc(OC(C)C)c(C)c4)CC3)O2)n1 (stereo not drawn) [Compound 229] | 2000 to 5000 nM
Cc1cc(C(=O)N2CCC3(CC2)CN(CC(F)F)CC(c2ncc(C(C)(C)C)o2)O3)ccc1OC(C)C (stereo not drawn) [Compound 230] | < 2000 nM
CC#CCN1CC(CC)OC2(CCN(C(=O)c3ccc(OC(C)C)c(C#N)c3)CC2)C1 (stereo not drawn) [Compound 231] | > 5000 nM

SMILES | IC50
COCC1CN(C2CCC[C@@H](C)C2)CC2(CCN(C(=O)c3ccc(OC(C)C)c(C)c3)CC2)O1 (stereo partly drawn) [Compound 232] | < 2000 nM
CCC1CN(CC(F)(F)F)CC2(CCN(C(=O)c3ccc(OC(C)C)c(C)c3)CC2)O1 (stereo not drawn) [Compound 233] | < 2000 nM
COc1cc(C(=O)N2CCC3(CC2)CN(CC(F)(F)F)CC(c2ccccc2)O3)cc(F)c1OC(C)C (stereo not drawn) [Compound 234] | < 2000 nM
CCOCC1CN(c2ncccn2)CC2(CCN(C(=O)c3ccc(OC(C)C)c(C)c3)CC2)O1 (stereo not drawn) [Compound 235] | < 2000 nM
CCC1CN(c2ncccn2)CC2(CCN(C(=O)c3ccc(OC(C)C)c(C)c3)CC2)O1 (stereo not drawn) [Compound 236] | < 2000 nM
COCC1CN(c2ncccn2)CC2(CCN(C(=O)c3ccc(C4(O)CCCCC4)cc3)CC2)O1 (stereo not drawn) [Compound 237] | < 2000 nM
CCC1CN(c2ncccn2)CC2(CCN(C(=O)c3ccc(S(=O)(=O)C(C)C)c(C)c3)CC2)O1 (stereo not drawn) [Compound 238] | 2000 to 5000 nM
CC#CCN1CC(CC)OC2(CCN(C(=O)c3ccc(OC(C)C)c(F)c3)CC2)C1 (stereo not drawn) [Compound 239] | > 5000 nM
COCC1CN(c2ncccn2)CC2(CCN(C(=O)c3ccc(CC(C)(C)O)cc3)CC2)O1 (stereo not drawn) [Compound 240] | > 5000 nM
CC(C)(O)c1ccc(C(=O)N2CCC3(CC2)CN(CC(F)F)CC(c2ccccc2)O3)cc1 (stereo not drawn) [Compound 241] | 2000 to 5000 nM
CC#CCN1CC(CC)OC2(CCN(C(=O)c3ccc(OCC)c(C)c3)CC2)C1 (stereo not drawn) [Compound 242] | 2000 to 5000 nM
CC(C)Oc1ccc(C(=O)N2CCC3(CC2)CN(CC(F)F)CC(c2ncco2)O3)cc1F (stereo not drawn) [Compound 243] | < 2000 nM
CC(C)Oc1ccc(C(=O)N2CCC3(CC2)CN(CC(F)F)CC(c2ccc(F)cc2)O3)cc1F (stereo not drawn) [Compound 244] | < 2000 nM
Cc1cc(C(=O)N2CCC3(CC2)CN(CC(F)(F)F)CC(c2ccccc2)O3)ccc1OC1COC1 (stereo not drawn) [Compound 245] | < 2000 nM
Cc1nc(C(=O)N2CCC3(CC2)CN(CC(F)F)CC(c2ccccc2)O3)ccc1OC(C)C (stereo not drawn) [Compound 246] | < 2000 nM
COc1cc(C(=O)N2CCC3(CC2)CN(CC(F)F)CC(c2ccc(F)cc2)O3)ccc1OC(C)(C)C (stereo not drawn) [Compound 247] | 2000 to 5000 nM
CC#CCN1CC(CC)OC2(CCN(C(=O)c3ccc(OC(C)C)c(C)c3)CC2)C1 (stereo not drawn) [Compound 248] | < 2000 nM
COCC1CN(CC(=O)C2CC2)CC2(CCN(C(=O)c3ccc(OC(C)C)c(C)c3)CC2)O1 (stereo not drawn) [Compound 249] | 2000 to 5000 nM
CCN1CC(c2ncc(C)s2)OC2(CCN(C(=O)c3ccc(OC(C)C)c(C)c3)CC2)C1 (stereo not drawn) [Compound 250] | < 2000 nM
Cc1cc(C(=O)N2CCC3(CC2)CN(CC(F)(F)F)CC(c2ccccc2)O3)ccc1C1COC1 (stereo not drawn) [Compound 251] | < 2000 nM
COCC1CN(Cc2nccs2)CC2(CCN(C(=O)c3ccc(OC(C)C)c(C)c3)CC2)O1 (stereo not drawn) [Compound 252] | 2000 to 5000 nM
COc1cc(C(=O)N2CCC3(CC2)CN(CC(F)F)CC(c2cccc(C)n2)O3)ccc1OC(C)C (stereo not drawn) [Compound 253] | 2000 to 5000 nM
CCN1CC(COC)OC2(CCN(C(=O)c3ccc(OC(C)C)c(C)c3)CC2)C1 (stereo not drawn) [Compound 254] | 2000 to 5000 nM
COCC1CN(C2COC2)CC2(CCN(C(=O)c3ccc(OC(C)C)c(C)c3)CC2)O1 (stereo not drawn) [Compound 255] | > 5000 nM
COCN1CC(c2cccc(OC)n2)OC2(CCN(C(=O)c3ccc(OC(C)C)c(C)c3)CC2)C1 (stereo not drawn) [Compound 256] | < 2000 nM

SMILES | IC50
CC(C)(O)c1ccc(C(=O)N2CCC3(CC2)CN(CC(F)(F)F)CC(c2ccccc2)O3)cc1F (stereo not drawn) [Compound 257] | < 2000 nM
COCC1CN(c2cccc(C(F)(F)F)c2)CC2(CCN(C(=O)c3ccc(OC(C)C)c(C)c3)CC2)O1 (stereo not drawn) [Compound 258] | < 2000 nM
CCN1CC(c2ccc(F)cc2)OC2(CCN(C(=O)c3ccc(OC(C)C)c(F)c3)CC2)C1 (stereo not drawn) [Compound 259] | < 2000 nM
COCC1CN(CC(F)(F)F)CC2(CCN(C(=O)c3ccc(OC(C)C)c(C)c3)CC2)O1 (stereo not drawn) [Compound 260] | < 2000 nM
Cc1cccnc1C1CN(CC(F)F)CC2(CCN(C(=O)c3ccc(OC(C)C)c(F)c3)CC2)O1 (stereo not drawn) [Compound 261] | < 2000 nM
CCC1CN(CC(=O)C(C)(C)C)CC2(CCN(C(=O)c3ccc(OC(C)C)c(C)c3)CC2)O1 (stereo not drawn) [Compound 262] | < 2000 nM
CC(C)Oc1ccc(C(=O)N2CCC3(CC2)CN(CC(F)F)CC(c2ccn(C)n2)O3)cc1F (stereo not drawn) [Compound 263] | < 2000 nM
COCN1CC(c2ncccn2)OC2(CCN(C(=O)c3ccc(C4(O)CCC4)cc3)CC2)C1 (stereo not drawn) [Compound 264] | > 5000 nM
Cc1cccc(C2CN(CC(F)F)CC3(CCN(C(=O)c4ccc(S(=O)(=O)C(C)C)c(C)c4)CC3)O2)n1 (stereo not drawn) [Compound 265] | 2000 to 5000 nM
CCC(=O)N1CC(c2ccccc2)OC2(CCN(C(=O)c3ccc(OC(C)C)c(C)c3)CC2)C1 (stereo not drawn) [Compound 266] | 2000 to 5000 nM
COCC1CN(c2ncccn2)CC2(CCN(C(=O)c3ccc(C(C)(C)O)c(C)c3)CC2)O1 (stereo not drawn) [Compound 267] | 2000 to 5000 nM
Cc1cnc(C2CN(C(C)(C)C)CC3(CCN(C(=O)c4ccc(OC(C)C)c(F)c4)CC3)O2)o1 (stereo not drawn) [Compound 268] | 2000 to 5000 nM
CC(C)(C)S(=O)(=O)c1ccc(C(=O)N2CCC3(CC2)CN(CC(F)F)CC(c2ccc(F)cc2)O3)cc1 (stereo not drawn) [Compound 269] | 2000 to 5000 nM
COCC1CN(C2CCOCC2)CC2(CCN(C(=O)c3ccc(OC(C)C)c(C)c3)CC2)O1 (stereo not drawn) [Compound 270] | 2000 to 5000 nM
CCC1CN(c2ncccn2)CC2(CCN(C(=O)c3ccc(C4(O)CCCC4)c(F)c3)CC2)O1 (stereo not drawn) [Compound 271] | < 2000 nM
CCOCC1CN(CC)CC2(CCN(C(=O)c3ccc(OC(C)C)c(C)c3)CC2)O1 (stereo not drawn) [Compound 272] | > 5000 nM
CC(C)(O)COc1ccc(C(=O)N2CCC3(CC2)CN(CC(F)(F)F)CC(c2ccccc2)O3)cc1 (stereo not drawn) [Compound 273] | 2000 to 5000 nM
COc1cc(C(=O)N2CCC3(CC2)CN(CC(F)F)CC(c2ccc(F)cc2)O3)ccc1OC(C)C (stereo not drawn) [Compound 274] | < 2000 nM
CC(C)(O)c1ccc(C(=O)N2CCC3(CC2)CN(CC#N)CC(c2ccccc2)O3)cc1 (stereo not drawn) [Compound 275] | > 5000 nM
COCC1CN(c2ncccn2)CC2(CCN(C(=O)c3ccc(OCCC(C)C)c(OC)c3)CC2)O1 (stereo not drawn) [Compound 276] | < 2000 nM
CC#CCN1CC(CC)OC2(CCN(C(=O)c3ccc(OC(C)C)c(C)n3)CC2)C1 (stereo not drawn) [Compound 277] | 2000 to 5000 nM
COc1cc(C(=O)N2CCC3(CC2)CN(CC(F)(F)F)CC(c2ccccc2)O3)ccc1OC(C)C (stereo not drawn) [Compound 278] | < 2000 nM
O=C(c1ccc(S(=O)(=O)NC2CC2)cc1)N1CCC2(CC1)CN(CC(F)F)CC(c1ccc(F)cc1)O2 (stereo not drawn) [Compound 280] | 2000 to 5000 nM
Cc1cc(C(=O)N2CCC3(CC2)CN(C(C)C)CC(c2ccccc2)O3)ccc1OC(C)C (stereo not drawn) [Compound 281] | < 2000 nM
